Experiments:
[1] = test system: hiPSC-CM monolayers; assay type: cell-based, human
Method: HBSS was aspirated and hiPSC-CMs were plated essentially as before[17],[22]. Briefly, commercially available iCell[2] Cardiomyocytes (Cellular Dynamics International) were thawed at 37 °C for 4 min, diluted in 7 ml of EB20 medium supplemented with blebbistatin (DMEM:F12, 20%FBS, 0.1% glutamine, 0.2%NEAA, 25 µM blebbistatin) and centrifuged (1000 rpm for 5 min) for removal of cryoprotectants. All work with human pluripotent stem cell derived cardiomyocytes was performed with approval from the University of Michigan Human Pluripotent Stem Cell Research Oversight committee (HPSCRO). All methods with human samples were handled following NIH guidelines. […]
(§1) Proarrhythmia screening assay was performed using voltage sensitive dye (VSD, FluoVolt) and high speed CCD camera (200fps)[24]. […] Supplemental Tables 1–3 outline each drug tested, the CiPA risk classification, the concentrations used and the clinical recorded Cmax for each drug to provide clinical reference for drug concentrations. Cells were then submitted to optical mapping for detection of voltage changes recorded with the CCD camera via selection of appropriate light wavelength (filter 515 nm, green light, Chroma). Movies were analyzed with custom made analysis software (Scroll) for determination of action potential duration and conduction velocity as described before[22],[24],[25].

[2] = test system: hiPSC-CM syncytia; assay: Proarrhythmia screen in 96 well plates using CiPA compounds (voltage sensitive dye, optical mapping); assay type: cell-based, human; conditions: hiPSC-CM syncytia on Matrix Plus, 10 × ETPC, 30 min exposure
Method: MatrixPlus coated 6 or 96 well plates were stored at 4 °C, transferred to room temperature on the day of cell plating and rehydrated (30 min) in Hank’s Balanced Salt Solution (HBSS). HBSS was aspirated and hiPSC-CMs were plated essentially as before[17],[22]. Briefly, commercially available iCell[2] Cardiomyocytes (Cellular Dynamics International) were thawed at 37 °C for 4 min, diluted in 7 ml of EB20 medium supplemented with blebbistatin (DMEM:F12, 20%FBS, 0.1% glutamine, 0.2%NEAA, 25 µM blebbistatin) and centrifuged (1000 rpm for 5 min) for removal of cryoprotectants. All work with human pluripotent stem cell derived cardiomyocytes was performed with approval from the University of Michigan Human Pluripotent Stem Cell Research Oversight committee (HPSCRO). All methods with human samples were handled following NIH guidelines. Cells from a single vial were diluted in EB20 with blebbistatin ([…]) and split evenly for plating on Matrigel, CELLvo Matrix and MatrixPLUS. Total amount of cells per functional syncytia varied depending on plate format, six well plates received 150,000 cells in the center of 1 cm diameter of matrix; and 96 well plates received 75,000 cells per well. Lower density plating (25,000 cells per well) was also used to more clearly observe cellular shape. hiPSC-CMs were maintained in cardiomyocyte EB20 supplemented with blebbistatin for 2 days before culture in RPMI supplemented with B27 for another 5 days[1].
as §1
Supplemental tables 1-3 outline each drug tested, the CiPA risk classification, the concentrations used and the clinical recorded Cmax for each drug to provide clinical reference for drug concentrations. hiPSC-CM monolayers were then submitted to optical mapping for detection of membrane voltage changes recorded with the CCD camera via selection of appropriate light wavelength (filter 515 nm, green light, Chroma). Movies were analyzed with custom made analysis software (Scroll) for determination of action potential duration and conduction velocity where appropriate.

Compound | Appearance of arrhythmias of TdP [1] | Change of beat rate or conduction velocity [1] | Wells with arrhythmias [2]
COc1ccccc1OCC(O)CN1CCN(CC(=O)Nc2c(C)cccc2C)CC1 (stereo not drawn) [ranolazine] | did not observe appearance of arrhythmias of TdP | did not significantly alter beat rate or conduction velocity | did not detect any arrhythmias
CC(C)COCC(CN(Cc1ccccc1)c1ccccc1)N1CCCC1 (stereo not drawn) [bepridil] |  |  | did not yield arrhythmic responses
CC(C)N(CCC(C(N)=O)(c1ccccc1)c1ccccn1)C(C)C (stereo not drawn) [disopyramide] |  |  | 66%
CN(CCOc1ccc(NS(C)(=O)=O)cc1)CCc1ccc(NS(C)(=O)=O)cc1 [dofetilide] |  |  | 83%
